These results are taken from US20250152661A1, “NOVEL COMBINATION TREATMENT REGIMEN OF BACTERIAL INFECTIONS” (BONE SUPPORT AB, priority 2022, published 2025).

In brackets after ≈: the same amount, converted by molar mass. Read-outs that look alike come from different tables or passages of the source.

In one experiment the test system is S. aureus ATCC 25923. The experiment can be described thus: MIC values predetermined using MALDI-TOF MS system (Vitek MS). In kind it is cell-based, Staphylococcus aureus.
For experiment [1], the system named is S. aureus clinical strain P-3. The description is as above. In kind it is cell-based, Staphylococcus aureus.

gentamicin: the MIC (as a rule, the smallest concentration in the dilution series that meets the test's criterion for growth inhibition) with S. aureus ATCC 25923 (S. aureus ATCC 25923) was 0.064 µg/mL; in experiment [1] (S. aureus clinical strain P-3), 0.5 µg/mL.
Take `CO[C@H]1/C=C/O[C@@]2(C)Oc3c(C)c(O)c4c(O)c(c(/C=N/N5CCN(C)CC5)c(O)c4c3C2=O)NC(=O)/C(C)=C\C=C\[C@H](C)[C@H](O)[C@@H](C)[C@@H](O)[C@@H](C)[C@H](OC(C)=O)[C@@H]1C` [RIF, rifampicin]: the MIC with S. aureus ATCC 25923 (Staphylococcus aureus, ATCC25923, S. aureus ATCC 25923, read-out: MIC) came out at 0.008 µg/mL (≈ 0.00972 µM); in experiment [1] (Staphylococcus aureus, S. aureus clinical strain P-3, read-out: MIC), 0.008 µg/mL (≈ 0.00972 µM).
Take `CN[C@H](CC(C)C)C(=O)N[C@H]1C(=O)N[C@@H](CC(N)=O)C(=O)N[C@H]2C(=O)N[C@H]3C(=O)N[C@H](C(=O)N[C@H](C(=O)O)c4cc(O)cc(O)c4-c4cc3ccc4O)[C@H](O)c3ccc(c(Cl)c3)Oc3cc2cc(c3O[C@@H]2O[C@H](CO)[C@@H](O)[C@H](O)[C@H]2O[C@H]2C[C@](C)(N)[C@H](O)[C@H](C)O2)Oc2ccc(cc2Cl)[C@H]1O` [VAN, Vancomycin]: the MIC with S. aureus ATCC 25923 (Staphylococcus aureus, ATCC25923) turned out to be 2 µg/mL (≈ 1.38 µM); in experiment [1] (Staphylococcus aureus), 1 µg/mL (≈ 0.69 µM).
